Key:
[1] = molecular target: T1, Eukaryotic elongation factor 2 kinase (Homo sapiens, UniProt O00418); test: Inhibition of eEF2K (unknown origin) using peptide MH-1 as substrate after 2 hrs by ADP-Glo luminescent assay
T1 sequence (O00418 whole entry): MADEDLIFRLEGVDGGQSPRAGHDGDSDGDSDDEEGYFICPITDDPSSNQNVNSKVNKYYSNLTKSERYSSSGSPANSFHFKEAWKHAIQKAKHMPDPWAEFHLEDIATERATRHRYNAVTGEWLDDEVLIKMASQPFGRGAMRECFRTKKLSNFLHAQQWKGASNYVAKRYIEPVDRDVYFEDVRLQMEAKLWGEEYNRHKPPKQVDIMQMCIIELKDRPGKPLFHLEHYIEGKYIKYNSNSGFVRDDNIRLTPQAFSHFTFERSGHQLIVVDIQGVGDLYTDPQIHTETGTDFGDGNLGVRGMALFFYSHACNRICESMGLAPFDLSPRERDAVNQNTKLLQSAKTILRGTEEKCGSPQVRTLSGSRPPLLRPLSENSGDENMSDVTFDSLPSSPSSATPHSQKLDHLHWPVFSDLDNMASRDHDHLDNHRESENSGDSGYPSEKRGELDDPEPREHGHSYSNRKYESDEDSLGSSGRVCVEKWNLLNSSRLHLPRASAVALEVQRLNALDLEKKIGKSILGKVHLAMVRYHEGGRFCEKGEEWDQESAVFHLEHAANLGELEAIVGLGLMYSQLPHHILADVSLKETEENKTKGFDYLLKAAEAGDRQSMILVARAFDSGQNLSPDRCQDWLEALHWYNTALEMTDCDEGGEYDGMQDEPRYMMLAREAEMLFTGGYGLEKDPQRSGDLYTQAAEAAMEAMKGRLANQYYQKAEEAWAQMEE

MDA-MB-436 = test: Antiproliferative activity against human MDA-MB-436 cells assessed as decrease in cell viability after 24 hrs by MTT assay; type: functional, cell-based; conditions: MDA-MB-436, 24 h
MDA-MB-231 = test: cells; conditions: Homo sapiens, MDA-MB-231, 24 h
Description: Antiproliferative activity against human MDA-MB-231 cells assessed as decrease in cell viability after 24 hrs by MTT assay

[2] = molecular target: T2, Eukaryotic elongation factor 2 kinase (Rattus norvegicus, UniProt P70531); test: Inhibition of recombinant rat GST-tagged eEF2K expressed in Escherichia coli BL21 (DE3) cells using yeast eEF2 as substrate preincubated for 30 mins followed by ATP/[gamma-32P]-ATP addition measured after 10 mins
T2 sequence (P70531 whole entry): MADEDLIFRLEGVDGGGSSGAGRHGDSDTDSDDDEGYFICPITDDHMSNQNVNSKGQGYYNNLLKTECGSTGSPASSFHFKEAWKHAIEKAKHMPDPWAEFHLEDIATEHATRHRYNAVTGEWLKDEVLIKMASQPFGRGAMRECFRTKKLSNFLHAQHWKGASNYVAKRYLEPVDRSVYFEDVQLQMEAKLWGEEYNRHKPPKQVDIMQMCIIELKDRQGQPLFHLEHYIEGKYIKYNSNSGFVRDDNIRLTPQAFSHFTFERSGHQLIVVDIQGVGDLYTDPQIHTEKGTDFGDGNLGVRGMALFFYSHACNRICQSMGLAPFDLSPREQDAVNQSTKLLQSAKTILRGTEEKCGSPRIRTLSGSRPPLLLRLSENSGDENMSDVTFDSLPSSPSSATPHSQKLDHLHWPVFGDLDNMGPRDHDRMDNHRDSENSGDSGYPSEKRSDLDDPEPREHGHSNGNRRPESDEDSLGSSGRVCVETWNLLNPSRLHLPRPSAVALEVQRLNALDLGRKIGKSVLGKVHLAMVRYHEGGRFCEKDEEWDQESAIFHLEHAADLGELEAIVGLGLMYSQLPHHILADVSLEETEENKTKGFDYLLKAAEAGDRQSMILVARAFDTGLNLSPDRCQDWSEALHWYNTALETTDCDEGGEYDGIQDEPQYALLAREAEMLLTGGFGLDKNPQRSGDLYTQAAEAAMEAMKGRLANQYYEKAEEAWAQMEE

[3] = molecular target: T1, Eukaryotic elongation factor 2 kinase; test: Inhibition of N-terminal GST-tagged recombinant human eEF2K expressed in Escherichia coli using biotinylated myelin basic protein as substrate after 45 mins in presence of [gamma-33P]-ATP by scintillation counting method

SMILES | IC50 [1] [µM] | IC50 (MDA-MB-436) [µM] | IC50 (MDA-MB-231) [µM] | IC50 [2] [µM] | IC50 [3] [µM]
O=C(O)CC(NS(=O)(=O)c1ccc(F)cc1)c1ccccc1 (centres undefined) | 31.2 | > 100 | 88.4 | – | –
O=C(O)CC(NC(=O)c1cccc(Br)c1)c1ccccc1F (centres undefined) | > 50 | > 100 | > 100 | – | –
COc1ccc(C(=O)NC(CC(=O)O)c2ccc(Cl)cc2Cl)cc1 (centres undefined) | 44.4 | > 100 | > 100 | – | –
O=C(O)CC(NC(=O)c1ccc(Cl)cc1Cl)c1ccccc1 (centres undefined) | 29.3 | 78.2 | 67.2 | – | –
CC(C)(C)c1ccc(C(CC(=O)O)NS(=O)(=O)c2ccc(OC(F)(F)F)cc2)cc1 (centres undefined) | > 50 | > 100 | > 100 | – | –
COc1ccccc1S(=O)(=O)NC(CC(=O)O)c1ccc(C(C)(C)C)cc1 (centres undefined) | > 50 | > 100 | > 100 | – | –
O=C(O)CC(NS(=O)(=O)c1cc(F)cc(F)c1)c1ccccc1 (centres undefined) | 37.8 | 69.4 | 79.3 | – | –
CC(C)(C)c1ccc(C(CC(=O)O)NC(=O)c2ccc(Cl)cc2Cl)cc1 (centres undefined) | 23.8 | > 100 | 67.8 | – | –
CC(C)(C)c1ccc(C(CC(=O)O)NS(=O)(=O)c2ccccc2)cc1 (centres undefined) | > 50 | > 100 | > 100 | – | –
O=C(O)CC(NC(=O)c1c(Cl)cccc1Cl)c1ccccc1 (centres undefined) | > 50 | > 100 | > 100 | – | –
O=C(O)CC(NS(=O)(=O)c1ccc(C(F)(F)F)cc1)c1ccc(Cl)cc1Cl (centres undefined) | 9.5 | 37.6 | 30.4 | – | –
O=C(O)CC(NS(=O)(=O)c1cc(F)cc(F)c1)c1ccccc1F (centres undefined) | 19.4 | 89.3 | 73.5 | – | –
CCC1(O)CC(C(C)C)[Se]C(c2ccc(C)cc2)=N1 (centres undefined) | – | – | – | 0.36 | –
N#Cc1ccc(S(=O)(=O)NC(CC(=O)O)c2ccccc2F)cc1 (centres undefined) | 27.5 | 77.7 | 69.7 | – | –
O=C(O)CC(NS(=O)(=O)c1cc(F)cc(F)c1)c1ccc(Cl)cc1Cl (centres undefined) | 12.5 | 49.6 | 35.7 | – | –
O=C(O)CC(NS(=O)(=O)c1ccccc1)c1ccccc1 (centres undefined) | > 50 | > 100 | > 100 | – | –
O=C(O)CC(NS(=O)(=O)c1ccccc1)c1ccc(Cl)cc1Cl (centres undefined) | 33.4 | 59 | 57.8 | – | –
CC(C)(C)c1ccc(S(=O)(=O)NC(CC(=O)O)c2ccccc2)cc1 (centres undefined) | > 50 | > 100 | > 100 | – | –
COc1ccccc1C(=O)NC(CC(=O)O)c1ccccc1 (centres undefined) | > 50 | > 100 | > 100 | – | –
O=C(O)CC(NC(=O)c1cccc(Br)c1)c1ccc(Cl)cc1Cl (centres undefined) | 28.4 | > 100 | 82.5 | – | –
O=C(O)CC(NC(=O)c1ccc(Cl)cc1Cl)c1ccccc1F (centres undefined) | 33.7 | > 100 | 89.3 | – | –
O=C(O)CC(NS(=O)(=O)c1cccc([N+](=O)[O-])c1)c1ccccc1 (centres undefined) | > 50 | > 100 | > 100 | – | –
O=C(O)CC(NS(=O)(=O)c1ccccc1)c1ccccc1F (centres undefined) | > 50 | > 100 | > 100 | – | –
CC(C)(C)c1ccc(C(CC(=O)O)NS(=O)(=O)c2ccc(C(F)(F)F)cc2)cc1 (centres undefined) | 18.4 | 60.1 | 53.7 | – | –

SMILES | IC50 [1] [µM] | IC50 (MDA-MB-436) [µM] | IC50 (MDA-MB-231) [µM] | IC50 [2] [µM] | IC50 [3] [µM]
CC(C)(C)c1ccc(C(CC(=O)O)NC(=O)c2ccc(C(F)(F)F)cc2)cc1 (centres undefined) | 22.6 | 82.3 | 78.8 | – | –
O=C(O)CC(NS(=O)(=O)c1ccc(C(F)(F)F)cc1)c1ccccc1 (centres undefined) | 19.6 | 54.7 | 56.1 | – | –
O=C(O)CC(NS(=O)(=O)c1ccc(OC(F)(F)F)cc1)c1ccccc1 (centres undefined) | > 50 | > 100 | > 100 | – | –
N#Cc1ccc(S(=O)(=O)NC(CC(=O)O)c2ccccc2)cc1 (centres undefined) | 18.7 | 59.3 | 48.7 | – | –
COc1ccc(C(=O)NC(CC(=O)O)c2ccc(C(C)(C)C)cc2)cc1 (centres undefined) | 47.9 | > 100 | > 100 | – | –
O=C(O)CC(NC(=O)c1ccc(C(F)(F)F)cc1)c1ccc(Cl)cc1Cl (centres undefined) | 11.7 | 44.1 | 39.1 | – | –
O=C(O)CC(NC(=O)c1ccc(F)cc1)c1ccc(Cl)cc1Cl (centres undefined) | 17.1 | 55.8 | 58.3 | – | –
O=C(O)CC(NS(=O)(=O)c1ccccc1Br)c1ccccc1 (centres undefined) | > 50 | > 100 | > 100 | – | –
O=C(O)CC(NC(=O)c1ccc(Cl)cc1Cl)c1ccc(Cl)cc1Cl (centres undefined) | 19.9 | 57.3 | 49.2 | – | –
O=C(O)CC(NC(=O)c1ccc(C(F)(F)F)cc1)c1ccccc1F (centres undefined) | 44.5 | 66.8 | 59.2 | – | –
O=C(O)CC(NC(=O)c1ccc(F)cc1)c1ccccc1 (centres undefined) | 35.1 | > 100 | 84.3 | – | –
CC(C)(C)c1ccc(C(CC(=O)O)NC(=O)c2c(Cl)cccc2Cl)cc1 (centres undefined) | > 50 | > 100 | > 100 | – | –
O=C(O)CC(NS(=O)(=O)c1cccc([N+](=O)[O-])c1)c1ccc(Cl)cc1Cl (centres undefined) | 44.5 | > 100 | 77.8 | – | –
O=C(O)CC(NS(=O)(=O)c1ccc(C(F)(F)F)cc1)c1ccccc1F (centres undefined) | 11.6 | 55.6 | 47.1 | – | –
O=C(O)CC(NC(=O)c1c(Cl)cccc1Cl)c1ccc(Cl)cc1Cl (centres undefined) | > 50 | > 100 | > 100 | – | –
CNC(=O)c1cc(Oc2ccc(NC(=O)Nc3ccc(Cl)c(C(F)(F)F)c3)cc2)ccn1 [SORAFENIB] | – | 4.2 | 2.8 | – | –
CC(C)(C)c1ccc(C(CC(=O)O)NS(=O)(=O)c2ccc(F)cc2)cc1 (centres undefined) | 38.5 | 68.9 | 66.2 | – | –
O=C(O)CC(NC(=O)c1cccc(Br)c1)c1ccccc1 (centres undefined) | > 50 | > 100 | > 100 | – | –
CCCCCCCCCCCCCCCC[N+]1=C(C)N(Cc2ccccc2)CC1 | – | – | – | – | 0.06
COc1ccccc1C(=O)NC(CC(=O)O)c1ccc(C(C)(C)C)cc1 (centres undefined) | > 50 | > 100 | > 100 | – | –
COc1ccccc1C(=O)NC(CC(=O)O)c1ccc(Cl)cc1Cl (centres undefined) | > 50 | > 100 | > 100 | – | –
O=C(O)CC(NS(=O)(=O)c1ccccc1Br)c1ccc(Cl)cc1Cl (centres undefined) | > 50 | > 100 | > 100 | – | –
O=C(O)CC(NC(=O)c1ccc(F)cc1)c1ccccc1F (centres undefined) | 36.7 | > 100 | 72.3 | – | –
CC(C)(C)c1ccc(C(CC(=O)O)NC(=O)c2ccc(F)cc2)cc1 (centres undefined) | 31.6 | > 100 | 87.6 | – | –

Source: ChEMBL document CHEMBL4138216, “Design, synthesis and structure-activity relationship of a focused library of β-phenylalanine derivatives as novel eEF2K inhibitors with apoptosis-inducing mechanisms in breast cancer” (Eur J Med Chem, 2018)
